# Assay results: US20170274006A1, “NASAL COMPOSITION COMPRISING MIXTURE OF HYALURONIC ACIDS AND SALINE SOLUTION” (SOFIBEL, priority 2014, published 2017)
# Tested on: HRV-A16
# Assay: Anti-viral effect: inhibition of HRV-A16 replication on human airway epithelial cell culture
# Assay type: cell-based, rhinovirus
# Details: applied one hour before infection; change in viral RNA
# Experimental: The example 1 composition is tested according to the test of evaluation of the potential activity against HRV-A16 (a rhinovirus responsible for colds) on fully differentiated human airway epithelial cells culture. The compositions are first applied before infection for one hour and the replication is carried out for 4 hours. 3 rinsing steps with the formulations are carried out. The remaining is collected and the RNA is dosed after cell lysis. The same collecting step is carried out 24 hours after and the same dosing step is carried out. The percentage expressed the changes in viral RNA, resulting in the % of inhibition of HRV-A16 replication, leading to the anti-viral efficacy. The tested composition is tested against rupintrivir (a known antiviral compound, providing an almost complete response).
smiles,measurement,value
CCOC(=O)/C=C/[C@H](C[C@@H]1CCNC1=O)NC(=O)[C@@H](CC(=O)[C@@H](NC(=O)c1cc(C)on1)C(C)C)Cc1ccc(F)cc1 [Rupintrivir],Inhibition (%) of HRV-A16 replication,99.62%
